One data set concerns KB. Nature of the data set: Cytotoxicity against human KB cells. In kind it is functional. The settings on record: read-out: ED50 (the source's name).
The test system of data set [1] is P388. As to the kind of experiment: Antitumor activity against mouse P388 cells allografted in mouse at 12.5 mg/kg. In kind it is functional.
The test system of data set [2] is P388. As to the kind of experiment: Antitumor activity against mouse P388 cells allografted in mouse at 6.25 mg/kg. In kind it is functional.
Data set [3] concerns P388. As to the kind of experiment: Antitumor activity against mouse P388 cells allografted in mouse at 3.13 mg/kg. In kind it is functional.
The test system of data set [4] is Mus musculus. As to the kind of experiment: Toxicity in mouse P388 cells allografted mouse at 400 mg/kg. The settings on record: in vivo. Also noted: dose 400 mg/kg. In kind it is organism-based.
Data set [5] has as its system Mus musculus. As to the kind of experiment: Toxicity in mouse P388 cells allografted mouse at 200 mg/kg. In kind it is organism-based. Details: dose 200 mg/kg. The settings on record: in vivo.
Data set [6] concerns Mus musculus. As to the kind of experiment: Toxicity in mouse P388 cells allografted mouse at 100 mg/kg. Particulars: in vivo. In kind it is organism-based. Details: dose 100 mg/kg.
The subject of data set [7] is Mus musculus. Nature of the data set: Toxicity in mouse P388 cells allografted mouse at 50 mg/kg. Format: organism-based. Also noted: dose 50 mg/kg. The settings on record: in vivo.
Data set [8] concerns Mus musculus. Nature of the data set: Toxicity in mouse P388 cells allografted mouse at 12.5 mg/kg. Format: organism-based. Also noted: dose 12.5 mg/kg. Particulars: in vivo.
Data set [9] relates to Mus musculus. Nature of the data set: Toxicity in mouse P388 cells allografted mouse at 6.25 mg/kg. Format: organism-based. Details: dose 6.25 mg/kg. Particulars: in vivo.
In data set [10] the test system is Mus musculus. As to the kind of experiment: Toxicity in mouse P388 cells allografted mouse at 3.13 mg/kg. In kind it is organism-based. Details: dose 3.13 mg/kg. Particulars: in vivo.
Data set [11] deals with P388. As to the kind of experiment: Antitumor activity against mouse P388 cells allografted in mouse at 25 mg/kg. Format: functional.
The subject of data set [12] is Mus musculus. As to the kind of experiment: Toxicity in mouse P388 cells allografted mouse at 25 mg/kg. In kind it is organism-based. Also noted: dose 25 mg/kg. The settings on record: in vivo.
Data set [13] deals with P388. As to the kind of experiment: Antitumor activity against mouse P388 cells allografted in mouse at 200 mg/kg. In kind it is functional.
Data set [14] has as its system P388. Nature of the data set: Antitumor activity against mouse P388 cells allografted in mouse at 400 mg/kg. In kind it is functional.
The test system of data set [15] is P388. As to the kind of experiment: Antitumor activity against mouse P388 cells allografted in mouse at 100 mg/kg. Format: functional.
For data set [16], the system named is P388. Nature of the data set: Antitumor activity against mouse P388 cells allografted in mouse at 50 mg/kg. In kind it is functional.

Each structure is given as a SMILES string. In brackets after ≈: the same amount, converted by molar mass. Bounds are passed on as bounds.

`COc1cc2c(cc1OC)-c1c(C)c3ccc(OC)c(OC)c3c[n+]1CC2.[Cl-]`: in the data set on KB, the EC50 worked out at 4.76 µg/mL. Moreover, the values for the T/C in the data set with P388 [1], with P388 [2] and with P388 [3] were 107, 102 and 105, respectively. The Activity entry with Mus musculus [4] is reported as “Toxic”; in the data set with Mus musculus [5], “Toxic”; with Mus musculus [6], “Toxic”; with Mus musculus [7], “Toxic”; with Mus musculus [8], “Non-toxic”; in the data set with Mus musculus [9] it was “Non-toxic”. Further, the Activity result with Mus musculus [10] is reported as “Non-toxic”.

Take `COc1cc2c[n+]3c(c(C)c2cc1OC)-c1cc2c(cc1CC3)OCO2.[I-]`: the EC50 in the data set on KB amounted to 2.98 µg/mL. Moreover, the T/C with P388 [11] was found to be 116; in the data set on P388 [1], 113; in the data set with P388 [2], 106. The Activity entry in the data set with Mus musculus [4] was “Toxic”; with Mus musculus [5] it was “Toxic”; in the data set on Mus musculus [6], “Toxic”; with Mus musculus [12], “Non-toxic”; in the data set with Mus musculus [8] it was “Non-toxic”; in the data set on Mus musculus [9] it was “Non-toxic”.

In the case of `COc1cc2c(cc1OC)[C@H](CO)[C@H]1c3cc4c(cc3CCN1C2)OCO4` (relative stereo), the EC50 with KB is more than 100 µg/mL.

On to `COc1cc2c(cc1OC)[C@@H](CO)[C@H]1c3cc4c(cc3CCN1C2)OCO4` (relative stereo), for which the T/C with P388 [13] turned out to be 105; with P388 [14], 129; in the data set with P388 [15], 98; in the data set with P388 [16], 115. Further, the EC50 in the data set with KB was determined as 2.65 µg/mL (≈ 7.17 µM). Besides, the Activity entry in the data set with Mus musculus [4], in the data set on Mus musculus [5], in the data set on Mus musculus [6] and with Mus musculus [7] was “Non-toxic” each time.

Turning to `COc1cc2c(cc1OC)[C@H](C)[C@H]1c3cc4c(cc3CCN1C2)OCO4` (relative stereo), in the data set with KB, the EC50 was more than 100 µg/mL.

With `COc1cc2c(cc1OC)[C@@H](C)[C@H]1c3cc4c(cc3CCN1C2)OCO4` (relative stereo), in the data set on KB, the EC50 is 0.47 µg/mL (≈ 1.33 µM).

Source of the values: ChEMBL document CHEMBL3227932, “Conformations, DNA binding parameters, and antileukemic activity of certain cytotoxic protoberberine alkaloids” (J Med Chem, 1979).
